# What was measured:
# [1] = biological target: T1, Phenylalanine--tRNA ligase, mitochondrial (Homo sapiens, UniProt O95363); assay: ChEBML_154873
# T1 sequence (O95363 whole entry): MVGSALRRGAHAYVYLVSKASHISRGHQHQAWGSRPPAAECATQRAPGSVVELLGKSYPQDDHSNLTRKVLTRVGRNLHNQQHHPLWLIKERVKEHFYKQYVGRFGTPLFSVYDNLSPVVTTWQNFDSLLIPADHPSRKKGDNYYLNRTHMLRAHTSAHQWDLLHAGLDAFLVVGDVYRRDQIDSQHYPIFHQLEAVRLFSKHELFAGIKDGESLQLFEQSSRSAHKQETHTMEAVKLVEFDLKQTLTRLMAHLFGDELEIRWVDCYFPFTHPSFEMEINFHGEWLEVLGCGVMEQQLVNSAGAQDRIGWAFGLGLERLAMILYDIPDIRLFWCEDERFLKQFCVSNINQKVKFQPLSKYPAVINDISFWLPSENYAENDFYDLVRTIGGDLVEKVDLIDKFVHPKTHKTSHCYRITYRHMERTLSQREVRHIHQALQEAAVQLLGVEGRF
# Procedure: (§1) Inhibitory activity against human phenylalanyl-tRNA synthetase was determined
# [2] = biological target: T1, Phenylalanine--tRNA ligase, mitochondrial; assay: as §1
# [3] = biological target: Phenylalanine--tRNA ligase (Enterococcus faecalis); assay: Inhibitory activity against phenylalanyl-tRNA synthetase from Enterococcus faecalis
# [4] = biological target: Phenylalanine--tRNA ligase (Enterococcus faecalis); assay: as above; remark: listed apart in the source
# [5] = biological target: Phenylalanine--tRNA ligase (Staphylococcus aureus); assay: Inhibitory activity against phenylalanyl-tRNA synthetase from Staphylococcus aureus
IC50 [1] [µM],IC50 [2] [µM],IC50 [3] [µM],IC50 [4] [µM],IC50 [5] [µM],Compound
> 100,> 100,> 100,> 100,> 100,Oc1c2c(c(O)n1-c1ccc(Cl)c(Cl)c1)C1(Cc3ccccc3C1)NC2c1ccccc1 (stereo unspecified)
,,32,,45,"O=C1c2ccccc2C(=O)C12OC(c1ccccc1)c1c2c(O)n(-c2ccc(Cl)c(C(F)(F)F)c2)c1O [5-(4-chloro-3-trifluoromethylphenyl)-3-phenyl-(3R,3aS,6aR)-spiro[perhydrofuro[3,4-c]pyrrole-1,2'-(2',3'-dihydro-1'H-indene)]-1',3',4,6-tetraone]"
> 100,,> 100,,> 100,"O=C1c2ccccc2C(=O)C12OC(c1ccccc1)c1c2c(O)n(-c2ccc([N+](=O)[O-])cc2)c1O [5-(4-nitrophenyl)-3-phenyl-(3R,3aS,6aR)-spiro[perhydrofuro[3,4-c]pyrrole-1,2'-(2',3'-dihydro-1'H-indene)]-1',3',4,6-tetraone]"
> 100,,> 100,> 100,,"Cc1ccc(C2OC3(C(=O)c4ccccc4C3=O)c3c2c(O)n(-c2ccc4c(c2)OCO4)c3O)cc1 [5-benzo[d][1,3]dioxol-5-yl-3-(4-methylphenyl)-(3R,3aS,6aR)-spiro[perhydrofuro[3,4-c]pyrrole-1,2'-(2',3'-dihydro-1'H-indene)]-1',3',4,6-tetraone]"
> 100,,> 100,> 100,,"COC(=O)C1NC(c2ccccc2)c2c1c(O)n(-c1ccc(Cl)c(Cl)c1)c2O [methyl 5-(3,4-dichlorophenyl)-4,6-dioxo-3-phenyl-(3R,3aS,6aR)-perhydropyrrolo[3,4-c]pyrrole-1-carboxylate]"
